Changes are numbered by the printed parent chain.
B1: human EXT1 (exostosin-1), N-terminally truncated, aa29-aa746 (enzyme, UniProt Q16394 29-746, looked up)
chain: RASRSHSRREEHSGRNGLHHPSPDHFWPRFPDALRPFVPWDQLENEDSSVHISPRQKRDANSSIYKGKKCRMESCFDFTLCKKNGFKVYVYPQQKGEKIAESYQNILAAIEGSRFYTSDPSQACLFVLSLDTLDRDQLSPQYVHNLRSKVQSLHLWNNGRNHLIFNLYSGTWPDYTEDVGFDIGQAMLAKASISTENFRPNFDVSIPLFSKDHPRTGGERGFLKFNTIPPLRKYMLVFKGKRYLTGIGSDTRNALYHVHNGEDVVLLTTCKHGKDWQKHKDSRCDRDNTEYEKYDYREMLHNATFCLVPRGRRLGSFRFLEALQAACVPVMLSNGWELPFSEVINWNQAAVIGDERLLLQIPSTIRSIHQDKILALRQQTQFLWEAYFSSVEKIVLTTLEIIQDRIFKHISRNSLIWNKHPGGLFVLPQYSSYLGDFPYYYANLGLKPPSKFTAVIHAVTPLVSQSQPVLKLLVAAAKSQYCAQIIVLWNCDKPLPAKHRWPATAVPVVVIEGESKVMSSRFLPYDNIITDAVLSLDEDTVLSTTEVDFAFTVWQSFPERIVGYPARSHFWDNSKERWGYTSKWTNDYSMVLTGAAIYHKYYHYLYSHYLPASLKNMVDQLANCEDILMNFLVSAVTKLPPIKVTQKKQYKETMMGQTSRASRWADPDHFAQRQSCMNTFASWFGYMPLIHSQMRLDPVLFKDQVSILRKKYRDIERL
modifications: N-linked glycan at Asn330
notes: exostosin-1 (EXT1), human, residues 29-746, lacking the N-terminal transmembrane helix; Only obtained by co-expression with EXT2; Model built for aa89-aa728 with some loops missing; also called EXT1 WT; not shown: secreted alkaline phosphatase, N-terminal, cleaved; 8x His, C-terminal, kept
B2: human EXT2 (exostosin-2), N-terminally truncated, aa47-aa718 (enzyme, UniProt Q93063 47-718, looked up)
chain: PHSIESSNDWNVEKRSIRDVPVVRLPADSPIPERGDLSCRMHTCFDVYRCGFNPKNKIKVYIYALKKYVDDFGVSVSNTISREYNELLMAISDSDYYTDDINRACLFVPSIDVLNQNTLRIKETAQAMAQLSRWDRGTNHLLFNMLPGGPPDYNTALDVPRDRALLAGGGFSTWTYRQGYDVSIPVYSPLSAEVDLPEKGPGPRQYFLLSSQVGLHPEYREDLEALQVKHGESVLVLDKCTNLSEGVLSVRKRCHKHQVFDYPQVLQEATFCVVLRGARLGQAVLSDVLQAGCVPVVIADSYILPFSEVLDWKRASVVVPEEKMSDVYSILQSIPQRQIEEMQRQARWFWEAYFQSIKAIALATLQIINDRIYPYAAISYEEWNDPPAVKWGSVSNPLFLPLIPPQSQGFTAIVLTYDRVESLFRVITEVSKVPSLSKLLVVWNNQNKNPPEDSLWPKIRVPLKVVRTAENKLSNRFFPYDEIETEAVLAIDDDIIMLTSDELQFGYEVWREFPDRLVGYPGRLHLWDHEMNKWKYESEWTNEVSMVLTGAAFYHKYFNYLYTYKMPGDIKNWVDAHMNCEDIAMNFLVANVTGKAVIKVTPRKKFKCPECTAIDGLSLDQTHMVERSECINKFASVFGTMPLKVVEHRADPVLYKDDFPEKLKSFPNIGSL
modifications: N-linked glycan at Asn637
notes: exostosin-2 (EXT2), human, residues 47-718, lacking the N-terminal transmembrane helix; Only obtained by co-expression with EXT1; Model built for aa78-aa702 with some loops missing; also called EXT2 WT; not shown: secreted alkaline phosphatase, N-terminal, cleaved; 8x His, C-terminal, kept

Columns and labels:
[1] = target: T1, EXT1-EXT2 complex (EXT1 GlcA-T site) (Homo sapiens, UniProt Q16394); assay: FACE glycosyl transfer assay; assay type: biochemical; settings: acceptor Alexa Fluor 430-labelled dp9 5 uM; 1 mM UDP-GlcA; 10 mM MnCl2; pH 7.2; 30 C; EXT1 GlcA-T domain
T1 construct: 1:1 heterodimer of Golgi-luminal parts, transmembrane helix removed (EXT1 aa29-746, EXT2 aa47-718), C-terminal 8xHis kept, secreted alkaline phosphatase fusion cut off with TEV; co-expressed in FreeStyle 293-F; about 160 kDa; with Exostosin-2
T1 sequence (Q16394 29-746): B1 chain
T1 sequence (Q93063 47-718 partner): B2 chain

[2] = target: T2, EXT1-EXT2 complex (GlcNAc-T sites of EXT1 and EXT2) (Homo sapiens, UniProt Q16394+Q93063); assay: FACE glycosyl transfer assay; assay type: biochemical; settings: acceptor Alexa Fluor 430-labelled dp8 5 uM; 1 mM UDP-GlcNAc; 10 mM MnCl2; pH 7.2; 30 C; GlcNAc-T domains of EXT1 and EXT2
T2 construct: same complex as P1; separate entry only because each chain has its own GlcNAc-T site; 1:1 heterodimer (EXT1 aa29-746, EXT2 aa47-718), C-terminal 8xHis kept, alkaline phosphatase fusion cut off with TEV; FreeStyle 293-F
T2 sequence (Q16394 29-746): B1 chain
T2 sequence (Q93063 47-718): B2 chain

[3] = target: T1, EXT1-EXT2 complex (EXT1 GlcA-T site); assay: cryo-EM structure, […] A; assay type: binding; settings: EXT1 GlcA-T active site; UDP-GlcA, UDP-GlcNAc and MnCl2 1 mM each added, only UDP seen; pH 7.2
[4] = target: B2; assay: cryo-EM structure; 0.4 mg/mL purified, co-expressed EXT1-EXT2 with 1 mM UDP-GlcNAc, 1 mM UDP-GlcA and 1 mM MnCl2; single-particle analysis, 2.8 Å; settings: both partners purified
[5] = target: T3, human EXT1 aa29-aa746 D162N/D164N (human, UniProt Q16394 29-746, D162N | D164N); assay: negative stain EM; purified complex diluted to 0.02 mg/mL in buffer A (50 mM Tris pH 7.8, 150 mM NaCl); mica-carbon flotation; settings: both partners purified
T3 construct: exostosin-1 (EXT1), human, residues 29-746, with point mutations in the GlcA-T domain; also called EXT1 D162N/D164N; source: FreeStyle 293-F cells, co-expressed with wild-type EXT2, purified as the wild-type complex; not shown: secreted alkaline phosphatase, N-terminal, cleaved; 8x His, C-terminal, kept
T3 sequence (looked up): B1 chain with D134N, D136N

[6] = target: B1; assay: cryo-EM structure; 0.4 mg/mL purified, co-expressed EXT1-EXT2 with 1 mM UDP-GlcNAc, 1 mM UDP-GlcA and 1 mM MnCl2; single-particle analysis, 2.8 Å; settings: both partners purified

Question: How did the “FACE glycosyl transfer assay” value [1] turn out when `O=C(O)[C@H]1O[C@H](OP(=O)(O)OP(=O)(O)OC[C@H]2O[C@@H](n3ccc(=O)[nH]c3=O)[C@H](O)[C@@H]2O)[C@H](O)[C@@H](O)[C@@H]1O` [UDP-GlcA] was run?
Answer: Its value is “the addition of a GlcA moiety onto dp9 enhanced the migration rate”.

Question: How did the “FACE glycosyl transfer assay” value [2] turn out when `CC(=O)N[C@H]1[C@@H](OP(=O)(O)OP(=O)(O)OC[C@H]2O[C@@H](n3ccc(=O)[nH]c3=O)[C@H](O)[C@@H]2O)O[C@H](CO)[C@@H](O)[C@@H]1O` [UDP-GlcNAc] was run?
Answer: The value was “the transfer of a GlcNAc residue onto dp8 led to a slower migration rate”.

Question: For `O=c1ccn([C@@H]2O[C@H](COP(=O)(O)OP(=O)(O)O)[C@@H](O)[C@H]2O)c(=O)[nH]1` [UDP], which “cryo-EM structure, 2.8 A” value [3] is on record?
Answer: The value was “we found an additional EM density that fits a UDP ligand”.

Question: For B1, which “stoichiometry N” value [4] is on record?
Answer: Its value is 1.

Question: Does B2 bind [5]?
Answer: Result: binds

Question: Does B2 bind [6]?
Answer: Result: binds
